Patent US20250059174A1, “Pharmaceutical Compounds and Compositions as C-Kit Kinase Inhibitors” (Enanta Pharmaceuticals, Inc., priority 2023, published 2025)

The compounds below were run against Recombinant human c-KIT kinase (Homo sapiens (Human), UniProt P10721) (assay: c-KIT kinase chemiluminescence assay (ADP-Glo)). Details: ATP 50 μM.
Type: biochemical
Summary of the method: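 Recombinant human c-KIT preincubated 30 min at RT in 40 mM Tris pH 7.5, 20 mM MgCl2, 0.1 mg/mL BSA, 50 μM DTT, then reacted 2 h at RT with ATP and polyEY substrate. ADP-Glo luminescence readout; activity normalized to high/low controls, IC50 and Hill coefficient from inhibitor-versus-normalized-response fit.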

Recombinant human c-KIT kinase, sequence (P10721 26-976): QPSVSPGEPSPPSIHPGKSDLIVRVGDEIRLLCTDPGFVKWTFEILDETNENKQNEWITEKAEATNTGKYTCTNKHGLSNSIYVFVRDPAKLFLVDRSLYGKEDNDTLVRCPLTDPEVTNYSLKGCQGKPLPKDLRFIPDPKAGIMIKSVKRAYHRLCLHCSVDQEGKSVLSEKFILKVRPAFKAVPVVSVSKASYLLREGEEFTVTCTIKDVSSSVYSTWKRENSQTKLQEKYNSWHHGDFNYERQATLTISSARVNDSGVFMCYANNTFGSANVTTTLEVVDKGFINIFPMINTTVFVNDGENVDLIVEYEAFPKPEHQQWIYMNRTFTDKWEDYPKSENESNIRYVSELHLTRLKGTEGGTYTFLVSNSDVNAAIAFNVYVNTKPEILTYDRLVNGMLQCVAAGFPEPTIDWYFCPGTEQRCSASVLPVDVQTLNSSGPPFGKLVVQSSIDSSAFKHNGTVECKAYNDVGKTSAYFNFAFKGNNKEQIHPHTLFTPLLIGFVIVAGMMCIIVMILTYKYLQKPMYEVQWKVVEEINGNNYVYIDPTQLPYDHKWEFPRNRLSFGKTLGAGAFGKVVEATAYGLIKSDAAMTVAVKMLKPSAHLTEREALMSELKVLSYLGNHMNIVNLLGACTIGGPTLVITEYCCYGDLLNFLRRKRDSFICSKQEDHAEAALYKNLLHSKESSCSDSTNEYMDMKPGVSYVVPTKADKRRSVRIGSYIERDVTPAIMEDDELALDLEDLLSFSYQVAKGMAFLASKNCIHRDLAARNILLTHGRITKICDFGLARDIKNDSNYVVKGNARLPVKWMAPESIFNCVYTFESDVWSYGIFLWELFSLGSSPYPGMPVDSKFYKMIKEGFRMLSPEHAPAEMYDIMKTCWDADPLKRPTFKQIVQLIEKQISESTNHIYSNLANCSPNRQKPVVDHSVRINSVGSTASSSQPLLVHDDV

Row | SMILES | IC50 [nM]
1 | Cc1ccc(-c2noc([C@H]3C[C@](O)(C(F)(F)F)C3)n2)cc1NC(=O)c1cnn2ccc(N3CC4(COC4)C3)cc12 [Example 281-31] | < 100
2 | Cc1ccc(-c2noc([C@H]3C[C@@H]3F)n2)cc1NC(=O)c1cnn2ccc(NCC3(C(=O)O)COC3)cc12 [Example 241-14] | 100 to 1000
3 | Cc1ccc(-c2noc([C@H]3C[C@@H]3F)n2)cc1NC(=O)c1cnn2ccc(-c3cnn(C(C)(C)CO)c3)cc12 [Example 140] | < 100
4 | Cc1ccc(-c2noc([C@H]3C[C@@H]3F)n2)cc1NC(=O)c1cnn2ccc(N3CC(C(C)(C)O)C3)cc12 [Example 179] | < 100
5 | Cc1ccc(-c2noc([C@H]3C[C@@H]3F)n2)cc1NC(=O)c1cnc(-c2cccc(N3CC4(COC4)C3)c2)o1 [Example 288] | 100 to 1000
6 | COC(=O)N1CC(c2nc(-c3cnc(C)c(NC(=O)c4cnn5cc(-c6cn(C(F)F)nn6)ccc45)c3)no2)C1 [Example 132-16] | 100 to 1000
7 | Cc1ccc(-c2nnc([C@H]3C[C@@H]3F)o2)cc1NC(=O)c1cnc(-c2ccc3c(c2)CC(=O)N3)o1 [Example 374] | 100 to 1000
8 | Cc1ccc(-c2noc([C@H]3C[C@@H]3F)n2)cc1NC(=O)c1cnn2ccc(-c3cn(C(F)F)nn3)cc12 [Example 111] | 100 to 1000
9 | Cc1ccc(-c2ncc(C(F)F)cn2)cc1NC(=O)c1cnn2ccc(N3CC4(COC4)C3)cc12 [Example 344] | 100 to 1000
10 | Cc1ccc(-c2noc([C@H]3C[C@@H]3F)n2)cc1NC(=O)c1cnc(-n2cccn2)o1 [Example 308-5] | > 1000
11 | Cc1ccc(-c2ncc(OC(F)(F)F)cn2)cc1NC(=O)c1cnn2ccc(N3CC4(COC4)C3)cc12 [Example 348] | < 100
12 | Cc1ncc(-c2ccc(OC(F)(F)F)cn2)cc1NC(=O)c1cnn2ccc(N3CC4(C3)CC(O)(C(F)F)C4)cc12 [Example 333] | < 100
13 | Cc1ccc(-c2noc([C@H]3C[C@@H]3F)n2)cc1NC(=O)c1cnn2cc(C#N)ccc12 [Example 128] | > 1000
14 | Cc1ccc(-c2noc([C@H]3C[C@@H]3F)n2)cc1NC(=O)c1cnn2ccc(N3CC4(C3)CC4(F)F)cc12 [Example 217] | < 100
15 | Cc1ncc(-c2nnn(C)n2)cc1NC(=O)c1cnn2ccc(N3CC4(C3)CC(O)(C(F)F)C4)cc12 [Example 312-2] | 100 to 1000
16 | Cc1ccc(-c2noc([C@H]3C[C@@H]3F)n2)cc1NC(=O)c1cnn2cc(-c3cn(CC(C)(C)O)nn3)ccc12 [Example 118] | < 100
17 | CC(=O)Nc1ncc(C(=O)Nc2cc(-c3noc([C@H]4C[C@@H]4F)n3)ccc2C)s1 [Example 38] | 100 to 1000
18 | COC(=O)N1CC(F)(c2nc(-c3cnc(C)c(NC(=O)c4cnn5ccc(N6CC7(C6)CC(O)(C(F)F)C7)cc45)c3)no2)C1 [Example 281-104] | > 1000

Other lines, results leading:

Row | IC50 [nM] | SMILES
19 | 100 to 1000 | Cc1ccc(-c2noc([C@H]3C[C@@H]3F)n2)nc1NC(=O)c1cnn2ccc(N3CC4(COC4)C3)cc12 [Example 261]
20 | < 100 | Cc1ccc(-c2noc([C@H]3C[C@@H]3F)n2)cc1NC(=O)c1cnc(-c2ccc3c(c2)NCCO3)o1 [Example 308-36]
21 | 100 to 1000 | Cc1ccc(-c2noc([C@H]3C[C@@H]3F)n2)cc1NC(=O)c1cnn2ccc(-c3cc(C(F)(F)F)nn3C)cc12 [Example 171-22]
22 | 100 to 1000 | Cc1ccc(-c2ncc(OC(F)F)cn2)cc1NC(=O)c1cnc(-c2ccc3c(c2)CC(=O)N3)o1 [Example 359]
23 | < 100 | Cc1ccc(-c2noc([C@H]3C[C@@H]3F)n2)cc1NC(=O)c1cnn2cc(-c3cn(C4CC4)nn3)ccc12 [Example 114]
24 | < 100 | Cc1ccc(-c2noc([C@H]3C[C@@H]3F)n2)cc1NC(=O)c1cnc(-c2ccc3cc[nH]c3c2)o1 [Example 295]
25 | < 100 | C#Cc1ccn2ncc(C(=O)Nc3cc(-c4noc([C@H]5C[C@@H]5F)n4)ccc3C)c2c1 [Example 108]
26 | 100 to 1000 | Cc1ccc(-c2noc([C@H]3C[C@@H]3F)n2)cc1NC(=O)c1cnn2cc(-c3cncnc3)ccc12 [Example 155]
27 | < 100 | Cc1ccc(-c2noc([C@H]3C[C@@H]3F)n2)cc1NC(=O)c1cnn2ccc(N3CC(CO)(CO)C3)cc12 [Example 241-3]

Each compound was assayed on M-07e cells (assay: M-07e cellular assay (SCF-mediated cell proliferation)). Details: Homo sapiens, 72 hours, CellTiter Glo.
Type: cell-based
Summary of the method: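 CellTiter Glo luminescence after 72 h compound exposure in SCF (EC90)-stimulated M-07e cells expressing endogenous human c-KIT.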

Row | SMILES | EC50 [nM]
28 | Cc1ccc(-c2noc([C@H]3C[C@@H]3F)n2)nc1NC(=O)c1cnn2ccc(N3CC4(COC4)C3)cc12 [Example 261] | 100 to 1000
29 | Cc1ccc(-c2noc([C@H]3C[C@@H]3F)n2)cc1NC(=O)c1cnc(-c2ccc3c(c2)NCCO3)o1 [Example 308-36] | < 100
30 | Cc1ccc(-c2noc([C@H]3C[C@](O)(C(F)(F)F)C3)n2)cc1NC(=O)c1cnn2ccc(N3CC4(COC4)C3)cc12 [Example 281-31] | < 100
31 | Cc1ccc(-c2noc([C@H]3C[C@@H]3F)n2)cc1NC(=O)c1cnn2ccc(NCC3(C(=O)O)COC3)cc12 [Example 241-14] | > 1000
32 | Cc1ccc(-c2noc([C@H]3C[C@@H]3F)n2)cc1NC(=O)c1cnn2ccc(-c3cnn(C(C)(C)CO)c3)cc12 [Example 140] | < 100
33 | Cc1ccc(-c2noc([C@H]3C[C@@H]3F)n2)cc1NC(=O)c1cnn2ccc(-c3cc(C(F)(F)F)nn3C)cc12 [Example 171-22] | 100 to 1000
34 | Cc1ccc(-c2noc([C@H]3C[C@@H]3F)n2)cc1NC(=O)c1cnn2ccc(N3CC(C(C)(C)O)C3)cc12 [Example 179] | < 100
35 | Cc1ccc(-c2noc([C@H]3C[C@@H]3F)n2)cc1NC(=O)c1cnc(-c2cccc(N3CC4(COC4)C3)c2)o1 [Example 288] | 100 to 1000
36 | Cc1ccc(-c2ncc(OC(F)F)cn2)cc1NC(=O)c1cnc(-c2ccc3c(c2)CC(=O)N3)o1 [Example 359] | 100 to 1000
37 | COC(=O)N1CC(c2nc(-c3cnc(C)c(NC(=O)c4cnn5cc(-c6cn(C(F)F)nn6)ccc45)c3)no2)C1 [Example 132-16] | 100 to 1000
38 | Cc1ccc(-c2nnc([C@H]3C[C@@H]3F)o2)cc1NC(=O)c1cnc(-c2ccc3c(c2)CC(=O)N3)o1 [Example 374] | 100 to 1000
39 | Cc1ccc(-c2noc([C@H]3C[C@@H]3F)n2)cc1NC(=O)c1cnn2ccc(-c3cn(C(F)F)nn3)cc12 [Example 111] | < 100
40 | Cc1ccc(-c2noc([C@H]3C[C@@H]3F)n2)cc1NC(=O)c1cnn2cc(-c3cn(C4CC4)nn3)ccc12 [Example 114] | < 100
41 | Cc1ccc(-c2noc([C@H]3C[C@@H]3F)n2)cc1NC(=O)c1cnc(-c2ccc3cc[nH]c3c2)o1 [Example 295] | 100 to 1000
42 | Cc1ccc(-c2ncc(C(F)F)cn2)cc1NC(=O)c1cnn2ccc(N3CC4(COC4)C3)cc12 [Example 344] | < 100
43 | Cc1ccc(-c2noc([C@H]3C[C@@H]3F)n2)cc1NC(=O)c1cnc(-n2cccn2)o1 [Example 308-5] | > 1000
44 | Cc1ccc(-c2ncc(OC(F)(F)F)cn2)cc1NC(=O)c1cnn2ccc(N3CC4(COC4)C3)cc12 [Example 348] | < 100
45 | Cc1ncc(-c2ccc(OC(F)(F)F)cn2)cc1NC(=O)c1cnn2ccc(N3CC4(C3)CC(O)(C(F)F)C4)cc12 [Example 333] | < 100
46 | Cc1ccc(-c2noc([C@H]3C[C@@H]3F)n2)cc1NC(=O)c1cnn2cc(C#N)ccc12 [Example 128] | 100 to 1000
47 | Cc1ccc(-c2noc([C@H]3C[C@@H]3F)n2)cc1NC(=O)c1cnn2ccc(N3CC4(C3)CC4(F)F)cc12 [Example 217] | < 100
48 | Cc1ncc(-c2nnn(C)n2)cc1NC(=O)c1cnn2ccc(N3CC4(C3)CC(O)(C(F)F)C4)cc12 [Example 312-2] | < 100
49 | C#Cc1ccn2ncc(C(=O)Nc3cc(-c4noc([C@H]5C[C@@H]5F)n4)ccc3C)c2c1 [Example 108] | < 100
50 | Cc1ccc(-c2noc([C@H]3C[C@@H]3F)n2)cc1NC(=O)c1cnn2cc(-c3cn(CC(C)(C)O)nn3)ccc12 [Example 118] | < 100
51 | CC(=O)Nc1ncc(C(=O)Nc2cc(-c3noc([C@H]4C[C@@H]4F)n3)ccc2C)s1 [Example 38] | 100 to 1000
52 | COC(=O)N1CC(F)(c2nc(-c3cnc(C)c(NC(=O)c4cnn5ccc(N6CC7(C6)CC(O)(C(F)F)C7)cc45)c3)no2)C1 [Example 281-104] | > 1000
53 | Cc1ccc(-c2noc([C@H]3C[C@@H]3F)n2)cc1NC(=O)c1cnn2cc(-c3cncnc3)ccc12 [Example 155] | 100 to 1000
54 | Cc1ccc(-c2noc([C@H]3C[C@@H]3F)n2)cc1NC(=O)c1cnn2ccc(N3CC(CO)(CO)C3)cc12 [Example 241-3] | < 100
